Results as given in ChEMBL document CHEMBL2150992, “Synthesis of quinoline derivatives for fluorescent imaging certain bacteria” (Bioorg Med Chem Lett, 2012).
Calls of active or inactive are those of the source. No cut-off for these calls is given here.

Experiments:
Assay type in all cases: functional, organism-based
[1] = tested on: Escherichia coli; test: Binding affinity to Escherichia coli at 0.0781 mM after 10 mins by fluorescence microscopy
[2] = tested on: Staphylococcus aureus; test: Binding affinity to Staphylococcus aureus at 0.0781 mM after 10 mins by fluorescence microscopy
[3] = tested on: Bacillus subtilis; test: Binding affinity to Bacillus subtilis at 0.0781 mM after 10 mins by fluorescence microscopy
[4] = tested on: Escherichia coli; test: Binding affinity to Escherichia coli at 0.0781 mM after 1 day by fluorescence microscopy
[5] = tested on: Staphylococcus aureus; test: Binding affinity to Staphylococcus aureus at 0.0781 mM after 1 day by fluorescence microscopy
[6] = tested on: Bacillus subtilis; test: Binding affinity to Bacillus subtilis at 0.0781 mM after 1 day by fluorescence microscopy

Activity [3]	Activity [6]	Structure (SMILES)	Activity [1]	Activity [2]	Activity [4]	Activity [5]
Active	Active	O=C1CCCN1c1cc(-c2cc3ccccc3c3ccccc23)nc2ccccc12	Active	Active	Active	Active
Active	Active	O=C1CCCN1c1cc(-c2cc3ccccc3c3ccccc23)nc2ccc(Br)cc12	inactive	Active	Active	Active
Active	Active	CCCCc1ccc2nc(-c3cc4ccccc4c4ccccc34)cc(N3CCCC3=O)c2c1	inactive	Active	Active	Active
Active	–	O=C1CCCN1[C@H]1C[C@@H](c2cc3ccccc3c3ccccc23)Nc2ccccc21 (relative stereo)	inactive	Active	–	–
Active	Active	COc1ccc2nc(-c3cc4ccccc4c4ccccc34)cc(N3CCCC3=O)c2c1	Active	inactive	Active	Active
inactive	–	c1ccc2c(c1)N[C@@H](c1cc3ccccc3c3ccccc13)C1CCCOC21 (stereo not given in full)	inactive	Active	–	–
Active	–	N#Cc1ccc2c(c1)[C@@H](N1CCCC1=O)C[C@@H](c1cc3ccccc3c3ccccc13)N2 (mixture of isomers)	inactive	Active	–	–
inactive	–	CCCCc1ccc2c(c1)[C@@H](N1CCCC1=O)C[C@@H](c1cc3ccccc3c3ccccc13)N2 (relative stereo)	inactive	Active	–	–
Active	Active	N#Cc1ccc2nc(-c3cc4ccccc4c4ccccc34)cc(N3CCCC3=O)c2c1	Active	Active	Active	Active
inactive	–	O=C1CCCN1[C@H]1C[C@@H](c2cc3ccccc3c3ccccc23)Nc2ccc(Br)cc21 (relative stereo)	Active	inactive	–	–
Active	–	O=C1CCCN1[C@H]1C[C@@H](c2cc3ccccc3c3ccccc23)Nc2ccc(Cl)cc21 (relative stereo)	inactive	inactive	–	–
Active	–	COc1ccc2c(c1)[C@@H](N1CCCC1=O)C[C@@H](c1cc3ccccc3c3ccccc13)N2 (relative stereo)	Active	Active	–	–
inactive	–	c1ccc2c(c1)N[C@H](c1cc3ccccc3c3ccccc13)C1CCCOC21 (stereo not given in full)	inactive	Active	–	–
Active	Active	O=C1CCCN1c1cc(-c2cc3ccccc3c3ccccc23)nc2ccc(Cl)cc12	Active	Active	Active	Active
